Reference: the NIST ThermoML archive (doi:10.1016/j.tca.2009.10.001)

Test: xn = mol fraction of the nth substance listed
Settings: 101 kPa, Liquid; for viscosity: Capillary tube (Ostwald / Ubbelohde) method; for speed of sound: Linear variable-path acoustic interferometer; for mass density: Pycnometric method

CC#N [acetonitrile] + Cc1ccccc1
Settings | mass density, 298.15 K [kg/m3] | mass density, 303.15 K [kg/m3] | mass density, 308.15 K [kg/m3] | speed of sound, 298.15 K [m/s] | speed of sound, 303.15 K [m/s] | speed of sound, 308.15 K [m/s] | viscosity, 298.15 K [mPa·s] | viscosity, 303.15 K [mPa·s] | viscosity, 308.15 K [mPa·s]
x2 = 0 | 775.3 | 769.9 | 764.7 | 1271.3 | 1251.9 | 1231.7 | 0.3696 | 0.3554 | 0.3414
x2 = 0.0506 | 784.6 | 779 | 773.6 | 1273.8 | 1253.9 | 1233.4 | 0.3809 | 0.3653 | 0.3503
x2 = 0.1082 | 794.1 | 788.4 | 782.9 | 1276.5 | 1256.3 | 1235.5 | 0.394 | 0.3772 | 0.3609
x2 = 0.1704 | 803.3 | 797.5 | 792 | 1279.3 | 1259 | 1238 | 0.408 | 0.39 | 0.3729
x2 = 0.2421 | 812.6 | 806.6 | 801.4 | 1282.4 | 1261.8 | 1240.9 | 0.4241 | 0.4045 | 0.3864
x2 = 0.3228 | 821.8 | 815.7 | 810.5 | 1285.7 | 1265 | 1244.3 | 0.4423 | 0.4211 | 0.4017
x2 = 0.4163 | 830.7 | 824.7 | 819.7 | 1289.2 | 1268.2 | 1247.8 | 0.4625 | 0.44 | 0.4193
x2 = 0.5288 | 839.6 | 833.8 | 828.7 | 1292 | 1270.9 | 1250.7 | 0.486 | 0.4614 | 0.4389
x2 = 0.6577 | 847.5 | 841.9 | 836.9 | 1294.5 | 1273.6 | 1253.5 | 0.5098 | 0.4834 | 0.4591
x2 = 0.8089 | 854.6 | 849.3 | 844.6 | 1296.7 | 1275.9 | 1256.3 | 0.5353 | 0.5069 | 0.4817

CCCC#N [butanenitrile] + Cc1ccccc1
Settings | mass density, 298.15 K [kg/m3] | mass density, 303.15 K [kg/m3] | mass density, 308.15 K [kg/m3] | speed of sound, 298.15 K [m/s] | speed of sound, 303.15 K [m/s] | speed of sound, 308.15 K [m/s] | viscosity, 298.15 K [mPa·s] | viscosity, 303.15 K [mPa·s] | viscosity, 308.15 K [mPa·s]
x2 = 0 | 784.7 | 780.3 | 775.9 | 1271.4 | 1252.2 | 1233.9 | 0.5463 | 0.5255 | 0.5049
x2 = 0.082 | 792.7 | 788.1 | 783.6 | 1276.3 | 1256.5 | 1237.9 | 0.5484 | 0.5265 | 0.5053
x2 = 0.1673 | 800.8 | 796.1 | 791.5 | 1280.6 | 1260.4 | 1241.7 | 0.5504 | 0.5276 | 0.5058
x2 = 0.2537 | 808.6 | 803.8 | 799.2 | 1284.9 | 1264.5 | 1245.4 | 0.5522 | 0.5287 | 0.5064
x2 = 0.3488 | 816.8 | 812 | 807.4 | 1289.2 | 1268.6 | 1249.3 | 0.5541 | 0.5299 | 0.5069
x2 = 0.4436 | 824.5 | 819.7 | 815.1 | 1292.6 | 1272.2 | 1252.5 | 0.5559 | 0.5309 | 0.5074
x2 = 0.5435 | 832.2 | 827.3 | 822.8 | 1294.9 | 1274.6 | 1254.7 | 0.5576 | 0.5317 | 0.5079
x2 = 0.651 | 839.8 | 834.9 | 830.4 | 1296.7 | 1276.5 | 1256.5 | 0.5592 | 0.5324 | 0.5082
x2 = 0.759 | 846.9 | 841.9 | 837.4 | 1298 | 1277.4 | 1257.8 | 0.5607 | 0.5329 | 0.5084
x2 = 0.8771 | 854.1 | 849.1 | 844.6 | 1298.7 | 1278.3 | 1259 | 0.5622 | 0.5337 | 0.5088

CCC#N [propanenitrile] + Cc1ccccc1
Settings | mass density, 298.15 K [kg/m3] | mass density, 303.15 K [kg/m3] | mass density, 308.15 K [kg/m3] | speed of sound, 298.15 K [m/s] | speed of sound, 303.15 K [m/s] | speed of sound, 308.15 K [m/s] | viscosity, 298.15 K [mPa·s] | viscosity, 303.15 K [mPa·s] | viscosity, 308.15 K [mPa·s]
x2 = 0 | 775.4 | 769.9 | 765.2 | 1252.4 | 1232.7 | 1213.7 | 0.4107 | 0.3991 | 0.3822
x2 = 0.0668 | 784.4 | 778.8 | 773.9 | 1257.2 | 1237 | 1217.6 | 0.4222 | 0.4087 | 0.3907
x2 = 0.1397 | 793.6 | 787.9 | 783 | 1262.2 | 1241.7 | 1222 | 0.4346 | 0.4194 | 0.4004
x2 = 0.2164 | 802.6 | 796.8 | 791.9 | 1267.3 | 1246.5 | 1226.7 | 0.4476 | 0.4306 | 0.4106
x2 = 0.3011 | 811.7 | 806 | 801.1 | 1272.9 | 1252 | 1232 | 0.4617 | 0.4432 | 0.422
x2 = 0.3905 | 820.5 | 814.9 | 810.1 | 1278.2 | 1257.1 | 1237.1 | 0.4765 | 0.4561 | 0.4341
x2 = 0.4917 | 829.4 | 823.9 | 819.1 | 1283 | 1262.1 | 1242.1 | 0.4927 | 0.4702 | 0.4475
x2 = 0.5989 | 837.7 | 832.3 | 827.6 | 1287.1 | 1266.2 | 1246.3 | 0.5082 | 0.4842 | 0.4606
x2 = 0.7174 | 845.7 | 840.5 | 835.8 | 1291.2 | 1270.4 | 1250.5 | 0.5247 | 0.4989 | 0.4748
x2 = 0.854 | 853.7 | 848.6 | 844 | 1295.2 | 1274.5 | 1255.2 | 0.5434 | 0.5158 | 0.4911
